Experimental data from patent publication US8106055B2, “Substituted amide compounds” (Gruenenthal GmbH, priority 2007, dated 2012).

Legend:
[1] = molecular target: T1, bradykinin 1 receptor (B1R) of the rat (Rattus norvegicus, UniProt P97583); assay: Functional investigation on the rat bradykinin 1 receptor (B1R), Ca2+ FLIPR assay in CHO K1 rB1R cells; format: cell-based; settings: test substance 10 μM, Ca2+ FLIPR, CHO K1 rB1R cells; for inhibition at 10 µM: CHO-K1, B1R antagonism rat, read-out: B1R Ant. r [10 μM] % Inhibition; for B1R Ant. r [10 μM] % Inhibition: B1R antagonism rat
T1 construct: expressed in transfected cells; host or cells: CHO K1 cells
T1 sequence (P97583 1-337): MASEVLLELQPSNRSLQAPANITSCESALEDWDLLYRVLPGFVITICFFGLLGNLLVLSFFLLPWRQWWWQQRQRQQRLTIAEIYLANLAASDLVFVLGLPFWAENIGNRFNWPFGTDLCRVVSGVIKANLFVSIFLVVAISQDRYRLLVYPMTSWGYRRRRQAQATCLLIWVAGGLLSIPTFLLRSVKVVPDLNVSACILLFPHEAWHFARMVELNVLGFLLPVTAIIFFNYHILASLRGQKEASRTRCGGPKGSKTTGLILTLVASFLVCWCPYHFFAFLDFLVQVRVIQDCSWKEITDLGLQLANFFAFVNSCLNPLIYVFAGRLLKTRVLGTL
Procedure, shortened: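 Peak Ca2+-dependent fluorescence in B1R-transfected CHO K1 cells measures antagonism of an EC80 agonist challenge given 10-20 min after compound. Agonist is Lys-Des-Arg9-bradykinin for human, Des-Arg9-bradykinin for rat receptor.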

human μ opiate receptor = molecular target: T2, human μ opiate receptor (Homo sapiens, UniProt P35372); assay: Affinity for the human μ opiate receptor ([3H]-naloxone displacement, CHO-K1 receptor membrane preparation, SPA); format: binding; settings: test concentration of 1 μM; for inhibition at 1 µM: read-out: μ (binding on the μ opioid receptor, % inhibition)
T2 construct: purchased PerkinElmer Life Sciences, Zaventem, Belgium RB-HOM; host or cells: CHO-K1 cells (membrane preparation)
T2 sequence (P35372 whole entry): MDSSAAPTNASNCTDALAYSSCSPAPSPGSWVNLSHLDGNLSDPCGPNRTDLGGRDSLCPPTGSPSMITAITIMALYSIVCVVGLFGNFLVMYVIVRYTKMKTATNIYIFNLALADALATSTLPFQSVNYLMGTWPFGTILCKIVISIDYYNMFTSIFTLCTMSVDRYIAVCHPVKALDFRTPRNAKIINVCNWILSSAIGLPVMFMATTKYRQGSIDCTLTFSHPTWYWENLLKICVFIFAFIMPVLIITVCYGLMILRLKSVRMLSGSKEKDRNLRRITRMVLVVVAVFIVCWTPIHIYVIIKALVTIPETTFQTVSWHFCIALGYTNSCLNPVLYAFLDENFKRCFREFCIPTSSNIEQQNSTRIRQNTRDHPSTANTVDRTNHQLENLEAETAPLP
Procedure, shortened: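 At 1 μmol/l, compounds were scored for % displacement of 1 nmol/l [3H]-naloxone from CHO-K1-expressed human μ opiate receptor in a homogeneous SPA format (90 min, room temperature).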

Structure (SMILES)	inhibition at 10 µM [1]	inhibition at 1 µM (human μ opiate receptor)	B1R Ant. r [10 μM] % Inhibition [1]	μ (binding on the μ opioid receptor, % inhibition) (human μ opiate receptor; 1 µM)	μ (binding on the μ opioid receptor, % inhibition) (human μ opiate receptor)
CN(C)C(c1cccs1)C1CCC(CCNC(=O)COCCN(Cc2ccccc2)S(=O)(=O)c2ccccc2)CC1 (stereo not drawn) [Example 116, 2-(2-(N-benzylphenylsulfonamido)ethoxy)-N-(2-(4-((dimethylamino)(thiophen-2-yl)methyl)cyclohexyl)ethyl)acetamide]	14%	91%			
CCN(CCOCC(=O)NCC1CCC(C(c2cccc(F)c2)N(C)C)CC1)S(=O)(=O)c1c(C)cc(OC)c(C)c1C (stereo not drawn) [Example 117, N-((4-((dimethylamino)(3-fluorophenyl)methyl)cyclohexyl)methyl)-2-(2-(N-ethyl-4-methoxy-2,3,6-trimethylphenylsulfonamido)ethoxy)acetamide]	77%	92%			
COc1cc(C)c(S(=O)(=O)N2CCC(CCOCC(=O)NC3CCC(C(c4cccc(F)c4)N(C)C)CC3)CC2)c(C)c1C (stereo not drawn) [Example 118, N-(4-((dimethylamino)(3-fluorophenyl)methyl)cyclohexyl)-2-(2-(1-(4-methoxy-2,3,6-trimethylphenylsulfonyl)piperidin-4-yl)ethoxy)acetamide]	-4%	90%			
CN(C)C(c1cccc(F)c1)C1CCC(CNC(=O)COCC2CCCN2S(=O)(=O)c2ccc(Cl)c(Cl)c2)CC1 (stereo not drawn) [Example 119, 2-((1-(3,4-dichlorophenylsulfonyl)pyrrolidin-2-yl)methoxy)-N-((4-((dimethylamino)(3-fluorophenyl)methyl)cyclohexyl)methyl)acetamide]	-6%	90%			
COc1ccc(S(=O)(=O)N2CCCCC2COCC(=O)NCCC2CCC(C(c3cccs3)N(C)C)CC2)cc1OC (stereo not drawn) [Example 120, 2-((1-(3,4-dimethoxyphenylsulfonyl)piperidin-2-yl)methoxy)-N-(2-(4-((dimethylamino)(thiophen-2-yl)methyl)cyclohexyl)ethyl)acetamide]	-14%	92%			
Cc1ccc(S(=O)(=O)N2CCC(OCC(=O)NCC3CCC(C(c4ccccc4)N(C)C)CC3)C2)cc1 (stereo not drawn) [Example 125, N-((4-((dimethylamino)(phenyl)methyl)cyclohexyl)methyl)-2-(1-tosylpyrrolidin-3-yloxy)acetamide]	6%	91%			
CN(C)C(c1cccc(F)c1)C1CCC(CCNC(=O)COCCN(C)S(=O)(=O)c2ccc(Cl)cc2Cl)CC1 (stereo not drawn) [Example 126, 2-(2-(2,4-dichloro-N-methylphenylsulfonamido)ethoxy)-N-(2-(4-((dimethylamino)(3-fluorophenyl)methyl)cyclohexyl)ethyl)acetamide]	59%	92%			
COc1ccc(S(=O)(=O)N(C)CCOCC(=O)NCC2CCC(C(c3cccs3)N(C)C)CC2)cc1OC (stereo not drawn) [Example 127, 2-(2-(3,4-Dimethoxy-N-methylphenylsulfonamido)ethoxy)-N-((4-((dimethylamino)(thiophen-2-yl)methyl)cyclohexyl)methyl)acetamide]	21%	87%			
COc1ccc(S(=O)(=O)N(C)CCOCC(=O)NCCC2CCC(C(c3cccs3)N(C)C)CC2)cc1 (stereo not drawn) [Example 128, N-(2-(4-((dimethylamino)(thiophen-2-yl)methyl)cyclohexyl)ethyl)-2-(2-(4-methoxy-N-methylphenylsulfonamido)ethoxy)acetamide]	46%	91%			
COc1cc(C)c(S(=O)(=O)N2CCCC(OCC(=O)NCCC3CCC(C(c4cccs4)N(C)C)CC3)C2)c(C)c1C (stereo not drawn) [Example 130, N-(2-(4-((dimethylamino)(thiophen-2-yl)methyl)cyclohexyl)ethyl)-2-(1-(4-methoxy-2,3,6-trimethylphenylsulfonyl)piperidin-3-yloxy)acetamide]	15%	94%			
COc1cc(C)c(S(=O)(=O)N2CCC(CCOCC(=O)NCC3CCC(C(c4cccs4)N(C)C)CC3)CC2)c(C)c1C (stereo not drawn) [Example 131, N-((4-((dimethylamino)(thiophen-2-yl)methyl)cyclohexyl)methyl)-2-(2-(1-(4-methoxy-2,3,6-trimethylphenylsulfonyl)piperidin-4-yl)ethoxy)acetamide]	-20%	86%			
CN(C)C(c1cccc(F)c1)C1CCC(NC(=O)COC2CCCCC2N(C)S(=O)(=O)c2ccc(Cl)c(Cl)c2)CC1 (stereo not drawn) [Example 132, 2-(2-(3,4-dichloro-N-methylphenylsulfonamido)cyclohexyloxy)-N-(4-((dimethylamino)(3-fluorophenyl)methyl)cyclohexyl)acetamide]	2%	91%			
COc1ccc(S(=O)(=O)N2CCCCC2COCC(=O)NCC2CCC(C(c3cccs3)N(C)C)CC2)cc1OC (stereo not drawn) [Example 133, 2-((1-(3,4-Dimethoxyphenylsulfonyl)piperidin-2-yl)methoxy)-N-((4-((dimethylamino)(thiophen-2-yl)methyl)cyclohexyl)methyl)acetamide]	7%	89%			
CN(C)C(c1ccccc1)C1CCC(NC(=O)COCCN(C)S(=O)(=O)c2c(Cl)cccc2Cl)CC1 (stereo not drawn) [Example 135, 2-(2-(2,6-dichloro-N-methylphenylsulfonamido)ethoxy)-N-(4-((dimethylamino)(phenyl)methyl)cyclohexyl)acetamide]	29%	89%			
COc1ccc(S(=O)(=O)N2CCCCC2COCC(=O)NCC2CCC(C(CCc3ccccc3)N(C)C)CC2)c(OC)c1 (stereo not drawn) [Example 420]			2%	53%	
CN(C)C(CCc1ccccc1)C1CCC(CNC(=O)COCCN(C)S(=O)(=O)c2c(Cl)cccc2Cl)CC1 (stereo not drawn) [Example 476]			74%	47%	
COc1ccc(S(=O)(=O)N2CCCCC2COCC(=O)NCC2CCC(C(CCc3ccccc3)N(C)C)CC2)c(OC)c1 (stereo not drawn) [Example 486]			20%	36%	
CN(C)C(c1cccc(F)c1)C1CCC(CCNC(=O)COCCC2CCN(S(=O)(=O)c3ccccc3)CC2)CC1 (stereo not drawn) [Example 543]			15%		29%
CN(C)C(CCc1ccccc1)C1CCC(CNC(=O)COCC2CCCN(S(=O)(=O)c3ccccc3)C2)CC1 (stereo not drawn) [Example 544]			38%		24%
COc1cc(C)c(S(=O)(=O)N2CCC(OCC(=O)NCC3CCC(C(CCc4ccccc4)N(C)C)CC3)CC2)c(C)c1C (stereo not drawn) [Example 546]			59%		33%
COc1cc(C)c(S(=O)(=O)N(CCOCC(=O)NCCC2CCC(C(c3ccc(F)cc3)N(C)C)CC2)Cc2ccccc2)c(C)c1 (stereo not drawn) [Example 547]			30%		30%
COc1ccc(S(=O)(=O)N(C)CCOCC(=O)NC2CCC(C(c3ccc(F)cc3)N(C)C)CC2)cc1OC (stereo not drawn) [Example 548]			11%		26%
COc1ccc(S(=O)(=O)N(C)CCOCC(=O)NC2CCC(C(c3ccc(F)cc3)N(C)C)CC2)cc1 (stereo not drawn) [Example 549]			40%		29%
COc1ccc(S(=O)(=O)N(C)CCOCC(=O)NCC2CCC(C(CCc3ccccc3)N(C)C)CC2)cc1 (stereo not drawn) [Example 550]			50%		20%
COc1cc(C)c(S(=O)(=O)N2CCCC(OCC(=O)NCC3CCC(C(CCc4ccccc4)N(C)C)CC3)C2)c(C)c1C (stereo not drawn) [Example 551]			36%		35%
CN(C)C(CCc1ccccc1)C1CCC(CNC(=O)COC2CCN(S(=O)(=O)c3cccc(C(F)(F)F)c3)C2)CC1 (stereo not drawn) [Example 552]			26%		23%
CN(C)C(c1ccc(F)cc1)C1CCC(CCNC(=O)COC2CCN(S(=O)(=O)c3ccccc3)CC2)CC1 (stereo not drawn) [Example 553]			−14%		26%
COc1cc(C)c(S(=O)(=O)N(CCOCC(=O)NCCC2CCC(C(c3ccc(F)cc3)N(C)C)CC2)Cc2ccccc2)c(C)c1C (stereo not drawn) [Example 554]			−11%		28%
COc1ccc(S(=O)(=O)N2CCCCC2COCC(=O)NC2CCC(C(c3ccc(F)cc3)N(C)C)CC2)cc1OC (stereo not drawn) [Example 555]			0%		23%
CN(C)C(CCc1ccccc1)C1CCC(CNC(=O)COCCN(C)S(=O)(=O)c2cccc(C(F)(F)F)c2)CC1 (stereo not drawn) [Example 556]			20%		27%
